Experimental data reported in paper PMC5193075 (The Journal of Pharmacology and Experimental Therapeutics, 2017).

Assays:
[1] = system: cryopreserved human primary hepatocytes; test: Drug depletion; details: for interwell variability in unbound intrinsic clearance (IWV) / interdonor variability in unbound intrinsic clearance (IDV): parentheses = relative standard error; for interdonor variability in unbound intrinsic clearance (IDV): individual-donor data; for CLint(u) ratio individual-donor/pooled hepatocytes: parentheses = 95% confidence intervals (Fieller's theorem)
[2] = Prediction of in vivo hepatic clearance from liver MPS data; parameters: species or system human
[3] = Unbound drug fraction in cell culture medium by rapid equilibrium dialysis; type: in vitro ADME; details: bovine, bovine serum albumin-containing cell culture medium
[4] = individual-donor data (within donor)

Row | Compound | interwell variability in unbound intrinsic clearance (IWV) [1, 4] | interdonor variability in unbound intrinsic clearance (IDV) [1] | interdonor variability in unbound intrinsic clearance (IDV) ([1]; listed as phenacetin) | CLint(u) ratio individual-donor/pooled hepatocytes [1] | interwell variability in unbound intrinsic clearance (IWV) ([1]; pooled hepatocytes data) | fold-error (underprediction) of in vivo hepatic clearance ([2]; parallel tube (PT) liver model) | fold-error (underprediction) of in vivo hepatic clearance ([2]; well stirred (WS) liver model) | fraction unbound [3]
1 | CCOc1ccc(NC(C)=O)cc1 [Phenacetin, phenacetin] | 26.1% (65.2%) CV% | 24.1% (80.4%) CV% | 24.1 CV% | 0.92 (0.61, 1.47) | 30.7% (41.5%) CV% | 1.7 fold | 2.1 fold | 0.98
2 | CC(C)Cc1ccc(C(C)C(=O)O)cc1 (stereo not shown) [Ibuprofen, ibuprofen] |  |  |  |  |  |  |  | 0.31
3 | O=C(O)Cc1ccccc1Nc1c(Cl)cccc1Cl [Diclofenac, diclofenac] |  | 36.2% (71.5%) CV% |  |  |  |  |  | 0.13
4 | C[C@]12C=CC(=O)C=C1CC[C@@H]1[C@@H]2[C@@H](O)C[C@@]2(C)[C@H]1CC[C@]2(O)C(=O)CO [Prednisolone, prednisolone] | 21.5% (70.0%) CV% | 29.3% (58.1%) CV% |  | 0.89 (0.63, 1.16) |  |  |  | 0.94
5 | CC(C)NCC(O)COc1cccc2ccccc12 (stereo not shown) [Propranolol, propranolol] |  |  |  |  |  |  |  | 0.98
